According to patent publication US11207325B2, “Triazolopyrimidine compounds and uses thereof” (Novartis AG, priority 2014, dated 2021):

System: H3K27 methylation in G401 cell
Assay: ELISA (H3K27 methylation) assay
Format: cell-based
Conditions: Homo sapiens, G-401; ELISA Qualified assay (H3K27 methylation); read-out: (c) IC50 (μM), ELISA Qualified
Source text: ELISA (H3K27 Methylation) Assay

| SMILES | IC50 [µM] |
| --- | --- |
| Cc1cc(OC(F)F)ncc1-c1cnc(NCc2c(F)ccc3c2CCO3)n2cnnc12 [Example 197, 8-(6-(difluoromethoxy)-4-methylpyridin-3-yl)-N-((5-fluoro-2,3-dihydrobenzofuran-4-yl)methyl)-[1,2,4]triazolo[4,3-c]pyrimidin-5-amine] | 0.0149 |
| Cc1cc(-c2cnc(NCc3c(F)ccc4c3CCO4)n3cnnc23)ccn1 [Example 116, N-((5-fluoro-2,3-dihydrobenzofuran-4-yl)methyl)-8-(2-methylpyridin-4-yl)-[1,2,4]triazolo[4,3-c]pyrimidin-5-amine] | 0.0072 |
| O=C(c1ccc(-c2cnc(NCc3cccc4c3CCO4)n3cnnc23)cc1)N1CCNCC1 [Example 41, (4-(5-(((2,3-dihydrobenzofuran-4-yl)methyl)amino)-[1,2,4]triazolo[4,3-c]pyrimidin-8-yl)phenyl)(piperazin-1-yl)methanone] | 0.375 |
| CNc1cc(F)c(-c2cnc(NCc3cccc4c3CCO4)n3cnnc23)cn1 [Example 111, N-((2,3-dihydrobenzofuran-4-yl)methyl)-8-(4-fluoro-6-(methylamino)pyridin-3-yl)-[1,2,4]triazolo[4,3-c]pyrimidin-5-amine] | 0.14 |
| Fc1ccc2c(c1CNc1ncc(-c3cccnc3C(F)F)c3nncn13)CCO2 [Example 168, 8-(2-(difluoromethyl)pyridin-3-yl)-N-((5-fluoro-2,3-dihydrobenzofuran-4-yl)methyl)-[1,2,4]triazolo[4,3-c]pyrimidin-5-amine] | 0.002 |
| CN1CCC(S(=O)(=O)c2ccc(-c3cnc(NCc4cccc5occc45)n4cnnc34)cc2)CC1 [Example 220, N-(benzofuran-4-ylmethyl)-8-(4-((1-methylpiperidin-4-yl)sulfonyl)phenyl)-[1,2,4]triazolo[4,3-c]pyrimidin-5-amine] | 0.467 |
| Cc1nc(C(=O)N(C)C)ccc1-c1cnc(NCc2c(F)ccc3c2CCO3)n2cnnc12 [Example 199, 5-(5-(((5-fluoro-2,3-dihydrobenzofuran-4-yl)methyl)amino)-[1,2,4]triazolo[4,3-c]pyrimidin-8-yl)-N,N,6-trimethylpicolinamide] | 0.005 |
| COc1ccc(-c2cnc(NCc3cccc4c3CCO4)n3cnnc23)cn1 [Example 21, N-((2,3-dihydrobenzofuran-4-yl)methyl)-8-(6-methoxypyridin-3-yl)-[1,2,4]triazolo[4,3-c]pyrimidin-5-amine] | 0.15 |
| CN(C)C(=O)c1ccc(-c2cnc(NCc3cccc4c3CCO4)n3cnnc23)cc1 [Example 42, 4-(5-(((2,3-dihydrobenzofuran-4-yl)methyl)amino)-[1,2,4]triazolo[4,3-c]pyrimidin-8-yl)-N,N-dimethylbenzamide] | 0.22 |
| Cc1ccc(-c2cnc(NCc3cccc4c3CCO4)n3cnnc23)cn1 [Example 52] | 0.106 |
| Cc1c(-c2cnc(NCc3c(F)ccc4c3CCO4)n3cnnc23)ccnc1F [Example 180, N-((5-fluoro-2,3-dihydrobenzofuran-4-yl)methyl)-8-(2-fluoro-3-methylpyridin-4-yl)-[1,2,4]triazolo[4,3-c]pyrimidin-5-amine] | 0.0124 |
| CN(C)C(=O)c1ccc(-c2cnc(NCc3cccc4c3CCO4)n3cnnc23)cn1 [Example 95, 5-(5-(((2,3-dihydrobenzofuran-4-yl)methyl)amino)-[1,2,4]triazolo[4,3-c]pyrimidin-8-yl)-N,N-dimethylpicolinamide] | 0.158 |
| Cc1ccc(-c2cnc(NCc3c(F)ccc4c3CCO4)n3cnnc23)cn1 [Example 57, N-((5-fluoro-2,3-dihydrobenzofuran-4-yl)methyl)-8-(6-methylpyridin-3-yl)-[1,2,4]triazolo[4,3-c]pyrimidin-5-amine] | 0.0334 |
| CN(C)C(=O)c1ccc(-c2cnc(NCc3c(F)ccc4c3CCO4)n3cnnc23)cn1 [Example 140, 5-(5-(((5-fluoro-2,3-dihydrobenzofuran-4-yl)methyl)amino)-[1,2,4]triazolo[4,3-c]pyrimidin-8-yl)-N,N-dimethylpicolinamide] | 0.0263 |
| Fc1ccc2c(c1CNc1ncc(-c3ccnc(N4CCOCC4)c3)c3nncn13)CCO2 [Example 120, N-((5-fluoro-2,3-dihydrobenzofuran-4-yl)methyl)-8-(2-morpholinopyridin-4-yl)-[1,2,4]triazolo[4,3-c]pyrimidin-5-amine] | 0.0721 |
| Cc1cc(-c2cnc(NCc3cccc4c3CCO4)n3cnnc23)cnc1S(C)(=O)=O [Example 70, N-((2,3-dihydrobenzofuran-4-yl)methyl)-8-(5-methyl-6-(methylsulfonyl)pyridin-3-yl)-[1,2,4]triazolo[4,3-c]pyrimidin-5-amine] | 0.0839 |
| O=C1OCCN1c1ccc(-c2cnc(NCc3cccc4c3CCO4)n3cnnc23)cn1 [Example 117, 3-(5-(5-(((2,3-dihydrobenzofuran-4-yl)methyl)amino)-[1,2,4]triazolo[4,3-c]pyrimidin-8-yl)pyridin-2-yl)oxazolidin-2-one] | 0.48 |

| SMILES | IC50 [µM] |
| --- | --- |
| Fc1ccc2c(c1CNc1ncc(-c3cccnc3)c3nncn13)CCO2 [Example 44, N-((5-fluoro-2,3-dihydrobenzofuran-4-yl)methyl)-8-(pyridin-3-yl)-[1,2,4]triazolo[4,3-c]pyrimidin-5-amine] | 0.0097 |
| CC(=O)NCc1ccc(-c2cnc(NCc3c(F)ccc4c3CCO4)n3cnnc23)cn1 [Example 171, N-((5-(5-(((5-fluoro-2,3-dihydrobenzofuran-4-yl)methyl)amino)-[1,2,4]triazolo[4,3-c]pyrimidin-8-yl)pyridin-2-yl)methyl)acetamide] | 0.0265 |
| Cc1nn(C(C)C)cc1-c1cnc(NCc2cccc3c2CCO3)n2cnnc12 [Example 82, N-((2,3-dihydrobenzofuran-4-yl)methyl)-8-(1-isopropyl-3-methyl-1H-pyrazol-4-yl)-[1,2,4]triazolo[4,3-c]pyrimidin-5-amine] | 0.107 |
| CS(=O)(=O)c1ccc(-c2cnc(NCc3cccc4c3CCO4)n3cnnc23)c(F)c1 [Example 26, N-((2,3-dihydrobenzofuran-4-yl)methyl)-8-(2-fluoro-4-(methylsulfonyl)phenyl)-[1,2,4]triazolo[4,3-c]pyrimidin-5-amine] | 0.0448 |
| Cc1nn(CCO)c(C)c1-c1cnc(NCc2c(F)ccc3c2CCO3)n2cnnc12 [Example 158, 2-(4-(5-(((5-fluoro-2,3-dihydrobenzofuran-4-yl)methyl)amino)-[1,2,4]triazolo[4,3-c]pyrimidin-8-yl)-3,5-dimethyl-1H-pyrazol-1-yl)ethanol] | 0.0067 |
| FCc1ncccc1-c1cnc(NCc2c(F)ccc3c2CCO3)n2cnnc12 [Example 193, N-((5-fluoro-2,3-dihydrobenzofuran-4-yl)methyl)-8-(2-(fluoromethyl)pyridin-3-yl)-[1,2,4]triazolo[4,3-c]pyrimidin-5-amine] | 0.0054 |
| Fc1ccc2c(c1CNc1ncc(-c3ccncc3Cl)c3nncn13)CCO2 [Example 162, 8-(3-chloropyridin-4-yl)-N-((5-fluoro-2,3-dihydrobenzofuran-4-yl)methyl)-[1,2,4]triazolo[4,3-c]pyrimidin-5-amine] | 0.0273 |
| CS(=O)(=O)CCOc1cncc(-c2cnc(NCc3cccc4c3CCO4)n3cnnc23)c1 [Example 106, N-((2,3-dihydrobenzofuran-4-yl)methyl)-8-(5-(2-(methylsulfonyl)ethoxy)pyridin-3-yl)-[1,2,4]triazolo[4,3-c]pyrimidin-5-amine] | 2.7 |
| Clc1ccccc1-c1cnc(NCc2cccc3c2CCO3)n2cnnc12 [Example 32, 8-(2-chlorophenyl)-N-((2,3-dihydrobenzofuran-4-yl)methyl)-[1,2,4]triazolo[4,3-c]pyrimidin-5-amine] | 0.115 |
| Cc1cc(C(=O)N(C)C)ncc1-c1cnc(NCc2c(F)ccc3c2CCO3)n2cnnc12 [Example 131, 5-(5-(((5-fluoro-2,3-dihydrobenzofuran-4-yl)methyl)amino)-[1,2,4]triazolo[4,3-c]pyrimidin-8-yl)-N,N,4-trimethylpicolinamide] | 0.0033 |
| CN(C)CCc1cccc(-c2cnc(NCc3cccc4c3CCO4)n3cnnc23)c1 [Example 89, N-((2,3-dihydrobenzofuran-4-yl)methyl)-8-(3-(2-(dimethylamino)ethyl)phenyl)-[1,2,4]triazolo[4,3-c]pyrimidin-5-amine] | 0.101 |
| COc1nccc(-c2cnc(NCc3c(F)ccc4c3CCO4)n3cnnc23)c1C [Example 230, N-((5-fluoro-2,3-dihydrobenzofuran-4-yl)methyl)-8-(2-methoxy-3-methylpyridin-4-yl)-[1,2,4]triazolo[4,3-c]pyrimidin-5-amine] | 0.0252 |
| Cc1cnc(F)cc1-c1cnc(NCc2c(F)ccc3c2CCO3)n2cnnc12 [Example 183, N-((5-fluoro-2,3-dihydrobenzofuran-4-yl)methyl)-8-(2-fluoro-5-methylpyridin-4-yl)-[1,2,4]triazolo[4,3-c]pyrimidin-5-amine] | 0.0106 |
| c1cc(CNc2ncc(-c3cncc(N4CCNCC4)c3)c3nncn23)c2c(c1)OCC2 [Example 77, N-((2,3-dihydrobenzofuran-4-yl)methyl)-8-(5-(piperazin-1-yl)pyridin-3-yl)-[1,2,4]triazolo[4,3-c]pyrimidin-5-amine] | 0.581 |
| CC1(C)COC(c2ccc(-c3cnc(NCc4cccc5c4CCO5)n4cnnc34)cn2)=N1 [Example 101, N-((2,3-dihydrobenzofuran-4-yl)methyl)-8-(6-(4,4-dimethyl-4,5-dihydrooxazol-2-yl)pyridin-3-yl)-[1,2,4]triazolo[4,3-c]pyrimidin-5-amine] | 0.761 |
| Cc1cc(C2CC2)ncc1-c1cnc(NCc2c(F)ccc3c2CCO3)n2cnnc12 [Example 173, 8-(6-cyclopropyl-4-methylpyridin-3-yl)-N-((5-fluoro-2,3-dihydrobenzofuran-4-yl)methyl)-[1,2,4]triazolo[4,3-c]pyrimidin-5-amine] | 0.0152 |
| Fc1ccc2c(c1CNc1ncc(-c3ccnc(C(F)(F)F)c3)c3nncn13)CCO2 [Example 185, N-((5-fluoro-2,3-dihydrobenzofuran-4-yl)methyl)-8-(2-(trifluoromethyl)pyridin-4-yl)-[1,2,4]triazolo[4,3-c]pyrimidin-5-amine] | 0.0468 |
